Experimental data published in US4806532A, “Inhibition of epithelial phosphate transport” (Mayo Foundation for Medical Education and Research, priority 1985, dated 1989).
pKi: −log10 of the molar value. Structures can show the parent of a compound that is named as a salt. Where two headings read alike, the source gives them in different places.

Tests used:
Na-Pi cotransporter = molecular target: T1, Na-Pi cotransporter (Rattus norvegicus, UniProt Q06496); assay: Na+-gradient-dependent 32Pi uptake by renal cortical BBMV (rapid filtration); format: biochemical; settings: for 32Pi Uptake 120 min / 32Pi Uptake 20 sec: 5 min preincubation; for 32Pi Uptake 120 min: equilibrium; for 32Pi Uptake 20 sec: mean ± SE of 3-5 experiments
T1 construct: from tissue; host or cells: rat renal cortex, brush border membrane vesicles
T1 sequence (Q06496 1-637): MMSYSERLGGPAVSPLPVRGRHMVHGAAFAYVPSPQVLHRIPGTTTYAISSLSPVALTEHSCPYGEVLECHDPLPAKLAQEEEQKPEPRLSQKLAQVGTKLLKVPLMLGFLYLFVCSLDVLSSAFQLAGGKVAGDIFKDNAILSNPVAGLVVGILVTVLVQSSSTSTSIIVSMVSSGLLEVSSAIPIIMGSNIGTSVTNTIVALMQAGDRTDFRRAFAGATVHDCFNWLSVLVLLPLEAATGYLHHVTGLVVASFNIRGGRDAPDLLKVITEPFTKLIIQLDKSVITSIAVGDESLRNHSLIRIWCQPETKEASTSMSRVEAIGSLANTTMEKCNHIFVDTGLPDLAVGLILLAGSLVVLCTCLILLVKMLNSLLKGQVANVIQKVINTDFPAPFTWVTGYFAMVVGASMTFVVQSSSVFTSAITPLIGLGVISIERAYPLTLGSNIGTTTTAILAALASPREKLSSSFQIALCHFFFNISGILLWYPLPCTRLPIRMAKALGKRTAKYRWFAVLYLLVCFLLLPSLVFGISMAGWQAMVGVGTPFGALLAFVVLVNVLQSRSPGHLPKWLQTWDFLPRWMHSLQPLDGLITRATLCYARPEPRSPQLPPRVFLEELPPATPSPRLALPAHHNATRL
Experimental: The brush border membrane vesicles (BBMV) were prepared from renal cortical tissue of adult male Sprague-Dawley rats of an average body weight of about 220 grams. Rats were fed ad libitum standard rat chow containing 0.7% Pi and had free access to distilled water. Rats were sacrificed under anesthesia and dissected renal cortical tissue was used for preparation of BBMV fraction by the divalent cation-precipitation procedure, employed and described in detail in J. Clin. Invest., 67, 1347 (1981) and J. Biol. Chem., 258, 5695 (1983), with the following modifications: (a) MgCl2 instead of CaCl2 was added to crude homogenate (final concentration 10 mM MgCl2) to precipitate membranes other than BBMV; (b) in the final step, BBMV were washed and equilibrated in a medium of pH=7.5, instead of pH=8.5. The enrichment and specific activities of typical BBM enzymes alkaline phosphatase (APases), γ-glutyamyl transferase (γ-GTT), leucineaminopeptidase (LAP) and maltase with use of these modifications were similar as in BBMV fractions prepared in our previous studies. As a final step in the preparative procedure, the BBMV fraction was washed and resuspended in a medium containing 300 mM mannitol and 5 mM Tris-HEPES adjusted to pH=t.5, referred to as "MTH-medium," unless specified otherwise. The analogous BBMV fractions, using the same procedure, were prepared from renal cortices of mongrel dogs, albino mice and New Zealand albino rabbits.
The BBMV uptake of ^32 Pi, D-[^3 H]-glucose, L-[^3 H]-proline and ^22 Na^+ was measured by means of a rapid filtration technique, as described in J. Clin. Invest., 67, 1347 (1981) and Am. J. Physiol., 246, F133-F139 (1984). Also, unless specified otherwise, the medium for the solute uptake assay consisted of following compounds (in final concentrations): 100 mM mannitol, 100 mM NaCl (or 100 mM KC1) and 5 mM Tris-HEPES (pH=7.5) and eitehr 0.1 mM K2 H^32 PO4, or 0.05 mM D-[^3 H]-glucose, or 0.025 mM L-[^3 H]-proline. IN the ^22 Na^+ uptake studies, the assay medium contained 100 mM ^22 NaCl (^22 NaCl about […] per tube), 100 mM mannitol and 5 mM Tris-HEPES (pH 7.5).
In most experiments, the Na^+ -gradient-dependent ^32 Pi uptake in the concentrative "uphill" phase was measured at 20 seconds period. Since Na^+ -independent Pi uptake in this time period was quantitatively minor component (<5%) of the Na^+ -gradient-dependent Pi uptake, it was not routinely subtracted.

[1] = test system: intestinal BBM alkaline phosphatase; assay: Effect on intestinal BBM alkaline phosphatase (data not shown); format: biochemical, rat
[2] = 1 mM, initial uptake at 20 sec, rat kidney cortex BBMV, read-out: Δ% (inhibition as percent decrease from control) of Na+-gradient-dependent 32Pi uptake

O=C(O)CP(=O)(O)O [PAA, phosphonoacetic acid]
Δ% ratio of uptake at uphill phase (20 sec) and equilibrium phase (120 min) (Na-Pi cotransporter; 0.2 mM): +305 ± 101%
32Pi Uptake 120 min (Na-Pi cotransporter; 0.2 mM): 320 ± 80 pmoles/mg protein
32Pi Uptake 20 sec (Na-Pi cotransporter; 0.2 mM): 1057 ± 89 pmoles/mg protein
Δ% ratio of uptake at uphill phase (20 sec) and equilibrium phase (120 min) (Na-Pi cotransporter; 1.0 mM): +331 ± 86%
32Pi Uptake 120 min (Na-Pi cotransporter; 1.0 mM): 274 ± 51 pmoles/mg protein
32Pi Uptake 20 sec (Na-Pi cotransporter; 1.0 mM): 1019 ± 94 pmoles/mg protein
inhibition at 1000 µM (Na-Pi cotransporter; [2]): -18%
Δ% ratio of uptake at uphill phase (20 sec) and equilibrium phase (120 min) (Na-Pi cotransporter; 5.0 mM): +261 ± 78%
32Pi Uptake 120 min (Na-Pi cotransporter; 5.0 mM): 269 ± 52 pmoles/mg protein
32Pi Uptake 20 sec (Na-Pi cotransporter; 5.0 mM): 876 ± 68 pmoles/mg protein
inhibition of intestinal BBM alkaline phosphatase [1]: neither TPFA or PAA inhibited

O=C(O)P(=O)(O)O [TPFA, Phosphonoformic acid, trisodium salt hexahydrate]
effect on intravesicular volume of BBMV (Na-Pi cotransporter): did not alter
nature of the inhibitory effect on Pi uptake (Na-Pi cotransporter): competitive
Δ% ratio of uptake at uphill phase (20 sec) and equilibrium phase (120 min) (Na-Pi cotransporter; 0.2 mM): +262 ± 44%
32Pi Uptake 120 min (Na-Pi cotransporter; 0.2 mM): 264 ± 53 pmoles/mg protein
32Pi Uptake 20 sec (Na-Pi cotransporter; 0.2 mM): 869 ± 45 pmoles/mg protein
Δ% ratio of uptake at uphill phase (20 sec) and equilibrium phase (120 min) (Na-Pi cotransporter; 1.0 mM): +137 ± 27%
32Pi Uptake 120 min (Na-Pi cotransporter; 1.0 mM): 248 ± 47 pmoles/mg protein
32Pi Uptake 20 sec (Na-Pi cotransporter; 1.0 mM): 541 ± 39 pmoles/mg protein
inhibition at 1000 µM (Na-Pi cotransporter; [2]): -53%
Δ% ratio of uptake at uphill phase (20 sec) and equilibrium phase (120 min) (Na-Pi cotransporter; 5.0 mM): < 0.0%
32Pi Uptake 120 min (Na-Pi cotransporter; 5.0 mM): 239 ± 44 pmoles/mg protein
32Pi Uptake 20 sec (Na-Pi cotransporter; 5.0 mM): 153 ± 28 pmoles/mg protein
inhibition at 1000 µM (Na-Pi cotransporter; 20 s, Rat, 1 mM TPFA, read-out: percent decrease of 20 sec 32Pi-uptake relative to control value): 59.1%
inhibition at 5000 µM (Na-Pi cotransporter; 20 s, Rat, 5 mM TPFA, read-out: percent decrease of 20 sec 32Pi-uptake relative to control value): 78%
effect on 32Pi uptake by BBMV in the absence of Na+ (Na-Pi cotransporter; NaCl replaced by KCl, 1 mM TPFA, FIG. 1): had no effect
32Pi-uptake 120 min (Na-Pi cotransporter; Rat, 1 mM TPFA, control 361 ± 9): 359 ± 8 pmoles Pi/mg protein/time
32Pi-uptake 20 sec (Na-Pi cotransporter; Rat, 1 mM TPFA, control 1570 ± 31): 783 ± 6 pmoles Pi/mg protein/time
32Pi-uptake 20 sec (Na-Pi cotransporter; Rat, 5 mM TPFA): 344 ± 7 pmoles Pi/mg protein/time
32Pi-uptake 120 min (Na-Pi cotransporter; Rat, 5 mM TPFA): 379 ± 34 pmoles Pi/mg protein/time
pKi (Na-Pi cotransporter; competitive inhibition, renal cortical BBMV): 3.34
effect on 32Pi uptake under Na+ equilibrium conditions [Na+i = Na+o] (Na-Pi cotransporter; initial fast uptake phase (0-60 seconds), data not shown): inhibited
inhibition of intestinal BBM alkaline phosphatase [1]: neither TPFA or PAA inhibited
